US20130274233A1, “MODULATORS OF HEDGEHOG SIGNALING PATHWAY” (priority 2012, published 2013)
Counter-ions that a name gives are not always drawn.

Tests used:
[1] = system: Hh pathway activity; test: Gli-luciferase reporter assay, Hh pathway activation by compound alone (NIH/3T3 cells); type: cell-based; settings: 1 μM SAG
Procedure: (§1) ShhLightII cells and SmoM2/LightII cells were cultured and treated in 96 well assay plates (Corning) and incubated with Duo-Glo luciferase substrates (Promega) to sequentially measure firefly and renilla luciferase activity. Smo, or GFP, expression plasmids were co-transfected into 3T3 cells together with a Gli-responsive firefly reporter and a TK-renilla luciferase reporter contruct to monitor effects of Smo overexpression. Co-transfection of the two reporter constructs was conducted in assays measuring Hh pathway activity in suFU−/− cells. Wnt activity was measured following co-transfection of a Top-flash and renilla luciferase reporter. In both Hh and Wnt activity assays, renilla luciferase reporter activity, or mass of protein, was used to normalize expression values. Luciferase signal was read by TopCount NX Microplate Scintillation and Luminescence Counter (Perkin Elmer). Quantitative PCR probes for Ptch1, Gli1, and β-actin were purchased from Applied Biosystems. Reactions and measurements were performed using on an Applied Biosystems 7900HT at Harvard FAS Center of System Biology. β-actin was used to normalize Ptch1 and Gil1 values.

[2] = target: T1, Smo::EGFP (Homo sapiens, UniProt Q99835); test: High content screen for compound-induced Smo accumulation at the primary cilium (no Hh ligand); type: cell-based
T1 construct: expressed in transfected cells
T1 sequence (Q99835 28-787): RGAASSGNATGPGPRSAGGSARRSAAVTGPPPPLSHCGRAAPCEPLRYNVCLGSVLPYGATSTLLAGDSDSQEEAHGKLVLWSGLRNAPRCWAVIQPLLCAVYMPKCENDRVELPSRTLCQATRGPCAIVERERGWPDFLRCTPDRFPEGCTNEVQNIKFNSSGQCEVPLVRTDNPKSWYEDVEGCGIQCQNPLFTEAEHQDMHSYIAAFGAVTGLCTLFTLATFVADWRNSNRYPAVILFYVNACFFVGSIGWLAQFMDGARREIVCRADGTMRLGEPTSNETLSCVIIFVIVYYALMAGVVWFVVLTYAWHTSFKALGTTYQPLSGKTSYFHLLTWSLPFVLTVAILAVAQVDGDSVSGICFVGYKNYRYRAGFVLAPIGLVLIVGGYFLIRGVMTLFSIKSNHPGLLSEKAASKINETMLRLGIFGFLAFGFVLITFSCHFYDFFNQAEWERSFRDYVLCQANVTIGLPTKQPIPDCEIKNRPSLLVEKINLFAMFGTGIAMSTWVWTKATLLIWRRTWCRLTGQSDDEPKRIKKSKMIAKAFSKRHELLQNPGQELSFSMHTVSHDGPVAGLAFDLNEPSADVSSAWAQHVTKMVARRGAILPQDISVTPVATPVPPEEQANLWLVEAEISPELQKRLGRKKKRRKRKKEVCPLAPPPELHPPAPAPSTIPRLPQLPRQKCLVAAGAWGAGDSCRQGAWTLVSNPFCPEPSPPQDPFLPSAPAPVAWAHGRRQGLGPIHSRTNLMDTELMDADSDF
Procedure: Cells were cultured and treated in 384-well imaging plate precoated with poly-D-Lysine (Greiner Bio-one), fixed with 4% paraformaldehyde (Electron Microscopy Sciences), and stained with Hoechst (Invitrogen). Images were collected using Opera High Content Screening System (Perkin Elmer).

[3] = target: T1, Smo::EGFP; test: High content assay of Shh-induced Smo::EGFP accumulation in the primary cilium (Smo::EGFP/Ivs::tagRFPT NIH/3T3 cells); type: cell-based; settings: for inhibition of Shh-induced Smo::EGFP accumulation in the PC: in the presence of Shh; for Smo antagonist activity in SAR assays: Smo::EGFP/Ivs::tagRFPT cells primed with compounds for 3 hours before adding Shh; for accumulation of Smo on the PC: in either the presence or absence of Shh
Text: (§2) NIH/3T3 cells were maintained in DMEM containing 10% (v/v) calf serum, penicillin, streptomycin, and L-glutamine. HEK293, L, cos 7, and suFU−/− mouse embryonic fibroblast cells were maintained in DMEM containing 10% (v/v) fetal bovine serum, penicillin, streptomycin, and L-glutamine. Smo::EGFP, SmoM2::GFP, and Ivs::tagRFPT were cloned into pBabe to generate retroviral particles for infection. Smo::EGFP/Ivs::tagRFPT and SmoM2::GFP/Ivs::tagRFPT stable cell lines were generated through viral infection of NIH/3T3^12. A ShhLightII Gli reporter cell line was obtained from the American Type Culture Collection (ATCC) and used in luciferase reporter assays to measure Hh pathway activity. The cell line contains a stably integrated Gli-responsive Firefly luciferase reporter and a constitutive Renilla luciferase expression construct^33. Subclones expressing Smo or SmoM2 in ShhLightII cells were used for chemical epistasis analyses.
(§3) Cells were cultured and treated in 384-well imaging plate precoated with poly-D-Lysine (Greiner Bio-one), fixed with 4% paraformaldehyde (Electron Microscopy Sciences), and stained with Hoechst (Invitrogen). Images were collected using Opera High Content Screening System (Perkin Elmer). Activityl)ase (IDBS Inc, Emeryvill, Calif.) and Pipeline Pilot (Accelrys, Inc. San Diego, Calif.) were used for high content screening data management and analysis. Acapella 2.0 software (Evotec Technologies/PerkinElmer) was used to perform multi-parametrical high content image quantification. All the images for comparison were scanned with identical microscopic settings and analyzed with the same input parameters.
(§4) Acapella 2.0 software (Evotec Technologies/PerkinElmer) was used to perform multi-parametric high content image quantification. Our image analysis script used Ivs::tagREPT to first determine the location of the PC and then Smo::EGFP to quantify the level of Smo present in the cilium.
(§5) The inventors used the spot-finding algorithm in the RFP channel to find Ivs-rich spots. Each non-overlapping spot was based on a maximum 8 pixel-radius (when using a 40× objective) around a central intensity peak of 5 pixels. A distance of at least 10 pixels was required between adjacent spot centers. Spot peaks had to exceed thresholds of relative intensity compared to the remaining body of the spot as well as to the entire image. The average, maximum and total RFP intensity of each spot were measured. The spots with sufficiently high absolute maxima to pass the selected threshold were classified as positive spots. To form candidate cilia, the inventors selected the brightest 15% of the pixels in each positive spot and merged those pixels into objects so that the brightest parts of adjacent spots could form single, larger cilia-shaped objects. To qualify the candidate cilia as true Ivs-positive cilia, the width of the objects created from merging the brightest pixels in each spot had to be at least 2 pixels and the length to half-width ratio had to exceed 3. (i.e. a 3-pixel long by 2-pixel wide cilium was the minimum accepted cilium size and the length had to be at least 1.5 fold of the width). The mean GFP intensity within these Ivs-positive cilia was used to estimate the ciliary level of Smo protein. The inventors subtracted the background of the mean GFP intensity in the 3-pixel wide area around each candidate cilium to avoid some false positives. Those Ivs-positive cilia that exceed the final mean GFP intensity threshold set for each experiment were deemed Smo-positive cilia.
Hoechst staining was used to determine the total number of nuclei per well.
Measurements of the geometry of the cilia as well as the total fluorescent intensities of each cilium in the Smo- and Ivs-channels were used to determine if any of the compounds were having unusual effects on cilia size, intensity or frequency of observation or combinations of all three characteristics.

[4] = system: Hh pathway activity; test: Gli-luciferase reporter assay, Shh-induced Hh pathway activity (ShhLightII cells); type: cell-based; settings: for inhibition of Shh-induced Hh pathway activity, Gli-luciferase reporter: Shh stimulation
Text: as §2
(§6) Hh activity assays were performed using ShhLightll cells, Smo/Lightll cells, SmoM2/Lightll cells, and suFU−/− mouse embryonic fibroblasts. In the suFU−/− cells, Hh activity was measured after co-transfection with Gli driven firefly luciferase and TK-renilla luciferase reporters^41. Wnt activity was measured in 293 cells co-transfected with Top-flash and TK-renilla luciferase reporters^42. Cells were cultured and treated in 96 well assay plates (Corning) and incubated with Duo-Glo luciferase substrates (Promega) to measure firefly and renilla luciferase activity sequentially using a Top Count NX Microplate Scintillation and Luminescence Counter (Perkin Elmer). The renilla luciferase signal was used to normalize the firefly reporter activity.
as §1

[5] = target: T2, SmoM2::GFP (Homo sapiens, UniProt Q99835, W535L); test: Ciliary localization of SmoM2::GFP (3T3/SmoM2::GFP Overexpression/Ivs::tagRFPT); type: cell-based; settings: SmoM2::EGFP overexpressing cells
T2 construct: expressed in transfected cells
T2 sequence (Q99835 28-787 W535L): as the sequence (Q99835 28-787) above, with W508L counted along it
Text: as §2, §3, §4

[6] = system: SmoM2; test: Gli-luciferase reporter induced by SmoM2::GFP overexpression (SmoM2/LightII cells); type: cell-based; settings: SmoM2 overexpression
Text: as §2, §6, §1

[7] = system: primary cilium (PC); test: Primary cilium markers in the high content assay (Ivs::tagRFPT, Arl13b, acetylated tubulin); type: cell-based; settings: Ivs::tagRFPT and other PC markers
Text: as §4
as §5, with “cilia. […]” for “cilia.”
Cells were cultured and treated in 384-well imaging plate precoated with poly-D-Lysine (Greiner Bio-one), fixed with 4% paraformaldehyde (Electron Microscopy Sciences), and stained with Hoechst (Invitrogen). […] Acapella 2.0 software (Evotec Technologies/PerkinElmer) was used to perform multi-parametric image quantification. All the comparative images were scanned with identical microscopic setting and analyzed with the same input parameters.

[8] = system: Smo; test: Bodipy-cyclopamine competition assay in Cos 7 cells expressing Smo; type: binding; settings: cells over-expressing Smo, 5 nM Bodipy-cyclopamine
Procedure: Cos 7 cells were transfected with a plasmid co-expressing Smo and a nuclear localized form of tagRFPT (pCIT-Smo). An empty parental construct (pCIT), and a construct that co-expresses SmoM2, were used as controls to assess specificity and background noise. Three days after transfection, cells were incubated with 5 nM Bodipy-cyclopamine, with or without other compounds for 1 hour at 37 °C. Cells were washed, fixed and stained with Hoechst. Images were collected by an Opera High Content Screen System. Bodipy fluorescence was quantified specifically for transfected cells (determined by red tagRFPT+ nucleus) using a program developed by the authors with Acapella 2.0 software. All of the images were scanned with identical microscopic settings and analyzed with the same input parameters.
Cos 7 cells were transfected with a plasmid that co-expresses Smo and a nuclear localized tagRFPT marker (pCIT-Smo). The empty parental construct (pCIT) and a construct that co-express SmoM2 were used as controls to assess specificity and background signal. Three days after transfection, cells were incubated with 5 nM Bodipy-cyclopamine, with or without additional compounds, for 1 hour at 37° C. Cells were then fixed and stained with Hoechst. Images were collected with the Opera High Content Screen System. Fluorescence values were assessed in transfected cells (red nuclei) with a program developed by the authors using Acapella 2.0 software. All of images were scanned with identical microscopic setting and analyzed with the same input parameters.

[9] = system: Hh pathway activity; test: Priming and withdrawal of compound followed by Shh stimulation, Gli-luciferase reporter (hypersensitivity); type: cell-based; settings: priming 24 hours, washout, then Shh (or SAG) stimulation
Procedure: as §6
Following the removal of drug containing medium, and extensive washing, cells were stimulated with either Hh ligand, or the direct-binding Smo agonist SAG^17,18.
as §1

[10] = system: Wnt signaling activity; test: Wnt Top-flash reporter assay; type: cell-based; settings: with or without Wnt3a
Procedure: as §6, §1

CNC1CCC(N(Cc2cccc(-c3ccncc3)c2)C(=O)c2sc3ccccc3c2Cl)CC1 (centres unmarked) [SAG]
transcriptional response in Gli-luciferase reporter assay [1]: 25 fold
induction of Smo accumulation in the PC by compound alone [2]: induces its accumulation in the PC

CC(C)c1ccc(/C=N/NC(=O)c2ccc(O)cc2)cc1 [GSK4716]
IC50 ([3]; 3T3/Smo::GFP/Ivs::tagRFPT cells, stimulus Shh, read-out: IC50, inhibition of Shh-induced Smo::GFP ciliary accumulaton): 2000 nM
IC50 ([4]; Mus musculus, Shh Light II, 3T3/Shh-LightII cells, stimulus Shh, read-out: IC50, inhibition of Shh-induced expression of Gli-luciferase reporter): 10 µM

CC(C)C(=O)OCC(=O)[C@@]12O[C@H](C3CCCCC3)O[C@@H]1C[C@H]1[C@@H]3CCC4=CC(=O)C=C[C@]4(C)[C@H]3[C@@H](O)C[C@@]12C [Cic, Ciclesonide]
effect on SmoM2 ciliary localization [5]: attenuated
inhibition of Shh-induced Smo::EGFP accumulation in the PC [3]: inhibition of Smo accumulation in the PC
effect on SmoM2 driven Hh pathway activity, transcriptional reporter [6]: attenuated
effect on primary cilium markers / ciliary structure [7]: did not disrupt
inhibition of Shh-induced Hh pathway activity, Gli-luciferase reporter [4]: inhibited

CC(=O)N1CCN(c2ccc(OCC3COC(Cn4ccnc4)(c4ccc(Cl)cc4Cl)O3)cc2)CC1 (centres unmarked) [KCZ, Ketoconazole]
inhibition of Shh-induced Smo::EGFP accumulation in the PC [3]: inhibited
inhibition of Shh-induced Hh pathway activity, Gli-luciferase reporter [4]: inhibited

CC1=C2C[C@H]3[C@@H](CC=C4C[C@@H](O)CC[C@@]43C)[C@@H]2CC[C@]12O[C@@H]1C[C@H](C)CN[C@H]1[C@H]2C [Cyc, Cyclopamine]
competition of Bodipy-Cyc binding to Smo [8]: effective competitor
hypersensitivity to Hh pathway stimulation after priming with and removal of compound, Gli-luciferase [9]: elevated signaling response
induction of Smo accumulation in the PC by compound alone [2]: induces its accumulation in the PC
Hh pathway inhibition by the antagonist in the presence of FA ([4]; Gli-luciferase induction and Smo ciliary localization, 10 μM FA): dramatically reduced

CC[C@]1(O)C[C@@H]2CN(CCc3c([nH]c4ccccc34)[C@@](C(=O)OC)(c3cc4c(cc3OC)N(C)[C@H]3[C@@](O)(C(=O)OC)[C@H](OC(C)=O)[C@]5(CC)C=CCN6CC[C@]43[C@@H]65)C2)C1 [vinblastine]
effect on primary cilium markers / ciliary structure [7]: decrease in the Ivs::tagRFPT ciliary signal
inhibition of Shh-induced Hh pathway activity, Gli-luciferase reporter [4]: appear as Hh pathway antagonists

CCN(CC)c1ccc(/C=N/NC(=O)c2ccc(OC)cc2)cc1 [RL-0070464]
Smo antagonist activity in SAR assays [3]: can be tolerated

CC/C(=C(/CC)c1ccc(O)cc1)c1ccc(O)cc1 [diethylstilbestrol]
accumulation of Smo on the PC [3]: did not alter the accumulation of Smo on the PC

CC[C@H](c1ccc(O)cc1)[C@@H](CC)c1ccc(O)cc1 [hexestrol]
accumulation of Smo on the PC [3]: did not alter the accumulation of Smo on the PC

CCN(CC)c1ccc(/C=N/NC(=O)c2ccccc2)cc1 [RL-0070463]
Smo antagonist activity in SAR assays [3]: moderately decreased the activity

O=C(N/N=C/c1ccccc1)c1ccc(O)cc1 [RL-0070462]
Smo antagonist activity in SAR assays [3]: dramatically impaired the activity

4-hydroxytamoxifen
accumulation of Smo on the PC [3]: did not alter the accumulation of Smo on the PC

CC/C(=C(\c1ccccc1)c1ccc(OCCN(C)C)cc1)c1ccccc1 [tamoxifen citrate]
accumulation of Smo on the PC [3]: did not alter the accumulation of Smo on the PC

Cl.Cl.Clc1ccccc1CNCC1CCC(CNCc2ccccc2Cl)CC1 (centres unmarked) [AY9944]
inhibition of Shh-induced Smo::EGFP accumulation in the PC [3]: inhibited
inhibition of Shh-induced Hh pathway activity, Gli-luciferase reporter [4]: inhibited

CCCC1O[C@@H]2C[C@H]3[C@@H]4CCC5=CC(=O)C=C[C@]5(C)[C@H]4[C@@H](O)C[C@]3(C)[C@]2(C(=O)CO)O1 (some centres unmarked) [Bud, Budesonide]
effect on Wnt pathway reporter activity [10]: no effect

N#CC(C(=O)c1ccc(Cl)cc1Cl)c1nc2ccccc2c(=O)[nH]1 (centres unmarked) [HPI-4]
effect on primary cilium markers / ciliary structure [7]: decrease in the Ivs::tagRFPT ciliary signal
inhibition of Shh-induced Hh pathway activity, Gli-luciferase reporter [4]: appear as Hh pathway antagonists
